This data set has as its system rodent lifetime carcinogenesis bioassay, tumor incidence TD50. The data set can be described thus: chronic cancer bioassays in animals – CPDB, compiled studies (AID 1745844).

Structures are written as SMILES. Calls of active or inactive are those of the source. No rule for the calls is given here.

As usually defined, the TD50 is the dose at which the toxic effect under study appears in half of the subjects. For `Nc1ccc(Cc2ccc(N)cc2)cc1`, the TD50 is, setting by setting: (mouse, strain B6C3F1, females, in drinking water, site: all sites + liver + thyroid gland, lesion: malignant lymphoma, histiocytic type + malignant lymphoma, mixed type + malignant lymphoma, undifferentiated type + malignant, dosed 103 weeks, study length 104 weeks) 32.6 mg/kg/day; (mouse, strain B6C3F1, females, in drinking water, site: all sites, lesion: malignant lymphoma, histiocytic type + malignant lymphoma, mixed type + malignant lymphoma, undifferentiated type + malignant, dosed 103 weeks, study length 104 weeks) 64.7 mg/kg/day; (mouse, strain B6C3F1, females, in drinking water, site: any site (literature study), lesion: several types, types named in the paper, dosed 103 weeks, study length 104 weeks) 52.1 mg/kg/day; (mouse, strain B6C3F1, females, in drinking water, site: liver, lesion: hepatocellular adenoma + hepatocellular carcinoma + neoplastic nodule, dosed 103 weeks, study length 104 weeks) 59.3 mg/kg/day; (mouse, strain B6C3F1, females, in drinking water, site: liver, lesion: hepatocellular adenoma + hepatocellular carcinoma, dosed 103 weeks, study length 104 weeks) 59.3 mg/kg/day; (mouse, strain B6C3F1, females, in drinking water, site: liver, lesion: hepatocellular adenoma, dosed 103 weeks, study length 104 weeks) 135 mg/kg/day. For the same molecule, the TD50 reads like this: (mouse, strain B6C3F1, females, in drinking water, site: liver, lesion: hepatocellular carcinoma, dosed 103 weeks, study length 104 weeks) 137 mg/kg/day; (mouse, strain B6C3F1, females, in drinking water, site: lung, lesion: alveolar/bronchiolar adenoma + alveolar/bronchiolar carcinoma, dosed 103 weeks, study length 104 weeks) 268 mg/kg/day; (mouse, strain B6C3F1, females, in drinking water, site: lung, lesion: alveolar/bronchiolar adenoma, dosed 103 weeks, study length 104 weeks) 327 mg/kg/day; (mouse, strain B6C3F1, females, in drinking water, site: thyroid gland, lesion: follicular-cell adenoma + follicular-cell carcinoma, dosed 103 weeks, study length 104 weeks) 128 mg/kg/day; (mouse, strain B6C3F1, females, in drinking water, site: thyroid gland, lesion: follicular-cell adenoma, dosed 103 weeks, study length 104 weeks) 150 mg/kg/day; (mouse, strain B6C3F1, males, in drinking water, site: adrenal gland + liver + thyroid gland, lesion: pheochromocytoma + hepatocellular carcinoma + follicular-cell adenoma, dosed 103 weeks, study length 104 weeks) 28.7 mg/kg/day. The TD50 is, setting by setting: (mouse, strain B6C3F1, males, in drinking water, site: adrenal gland, lesion: pheochromocytoma, dosed 103 weeks, study length 104 weeks) 70 mg/kg/day; (mouse, strain B6C3F1, males, in drinking water, site: any site (literature study), lesion: several types, types named in the paper, dosed 103 weeks, study length 104 weeks) 47.4 mg/kg/day; (mouse, strain B6C3F1, males, in drinking water, site: liver, lesion: hepatocellular adenoma + hepatocellular carcinoma + neoplastic nodule, dosed 103 weeks, study length 104 weeks) 17 mg/kg/day; (mouse, strain B6C3F1, males, in drinking water, site: liver, lesion: hepatocellular adenoma + hepatocellular carcinoma, dosed 103 weeks, study length 104 weeks) 17 mg/kg/day; (mouse, strain B6C3F1, males, in drinking water, site: liver, lesion: hepatocellular carcinoma, dosed 103 weeks, study length 104 weeks) 22.3 mg/kg/day; (mouse, strain B6C3F1, males, in drinking water, site: thyroid gland, lesion: follicular-cell adenoma, dosed 103 weeks, study length 104 weeks) 88.4 mg/kg/day. The TD50 was 277 mg/kg/day (rat, strain Fischer 344, females, in drinking water, site: any site (literature study), lesion: several types, types named in the paper, dosed 103 weeks, study length 105 weeks); 118 mg/kg/day (rat, strain Fischer 344, females, in drinking water, site: liver, lesion: hepatocellular adenoma + hepatocellular carcinoma + neoplastic nodule, dosed 103 weeks, study length 105 weeks); 70 mg/kg/day (rat, strain Fischer 344, females, in drinking water, site: thyroid gland, lesion: c-cell adenoma + c-cell carcinoma, dosed 103 weeks, study length 105 weeks); 22 mg/kg/day (rat, strain Fischer 344, females, in drinking water, site: thyroid gland, lesion: c-cell adenoma + follicular-cell adenoma, dosed 103 weeks, study length 105 weeks); 73.7 mg/kg/day (rat, strain Fischer 344, females, in drinking water, site: thyroid gland, lesion: c-cell adenoma, dosed 103 weeks, study length 105 weeks); 27.2 mg/kg/day (rat, strain Fischer 344, females, in drinking water, site: thyroid gland, lesion: follicular-cell adenoma + follicular-cell carcinoma, dosed 103 weeks, study length 105 weeks). For the same molecule, the TD50 is 33.5 mg/kg/day (rat, strain Fischer 344, females, in drinking water, site: thyroid gland, lesion: follicular-cell adenoma, dosed 103 weeks, study length 105 weeks); 12.5 mg/kg/day (rat, strain Fischer 344, males, in drinking water, site: liver + thyroid gland, lesion: neoplastic nodule + follicular-cell carcinoma, dosed 103 weeks, study length 105 weeks); 14.1 mg/kg/day (rat, strain Fischer 344, males, in drinking water, site: liver, lesion: hepatocellular adenoma + hepatocellular carcinoma + neoplastic nodule, dosed 103 weeks, study length 105 weeks); 14.3 mg/kg/day (rat, strain Fischer 344, males, in drinking water, site: liver, lesion: neoplastic nodule, dosed 103 weeks, study length 105 weeks); 49.5 mg/kg/day (rat, strain Fischer 344, males, in drinking water, site: thyroid gland, lesion: follicular-cell adenoma + follicular-cell carcinoma, dosed 103 weeks, study length 105 weeks); 85.4 mg/kg/day (rat, strain Fischer 344, males, in drinking water, site: thyroid gland, lesion: follicular-cell carcinoma, dosed 103 weeks, study length 105 weeks).

Regarding `Nc1ccc(N)c2c1C(=O)c1c(N)ccc(N)c1C2=O`, the TD50 is, setting by setting: (mouse, strain B6C3F1, females, in feed, site: liver, lesion: hepatocellular adenoma, dosed 103 weeks, study length 106 weeks) 150 mg/kg/day (inactive); (mouse, strain B6C3F1, females, in feed, site: lung, lesion: alveolar/bronchiolar adenoma + alveolar/bronchiolar carcinoma, dosed 103 weeks, study length 106 weeks) 9310 mg/kg/day; (mouse, strain B6C3F1, males, in feed, site: any site (literature study), lesion: several types, types named in the paper, dosed 104 weeks, study length 105 weeks) 1290 mg/kg/day; (mouse, strain B6C3F1, males, in feed, site: liver, lesion: hepatocellular adenoma + hepatocellular carcinoma + neoplastic nodule, dosed 104 weeks, study length 105 weeks) 534 mg/kg/day; (mouse, strain B6C3F1, males, in feed, site: liver, lesion: hepatocellular adenoma + hepatocellular carcinoma, dosed 104 weeks, study length 105 weeks) 534 mg/kg/day; (mouse, strain B6C3F1, males, in feed, site: lung, lesion: alveolar/bronchiolar adenoma + alveolar/bronchiolar carcinoma, dosed 104 weeks, study length 105 weeks) 701 mg/kg/day. Also, the TD50 is 925 mg/kg/day (mouse, strain B6C3F1, males, in feed, site: lung, lesion: alveolar/bronchiolar adenoma, dosed 104 weeks, study length 105 weeks); 130 mg/kg/day (rat, strain Fischer 344, females, in feed, site: any site (literature study), lesion: several types, types named in the paper, dosed 103 weeks, study length 104 weeks); 291 mg/kg/day (rat, strain Fischer 344, females, in feed, site: pancreatic islets, lesion: islet-cell carcinoma, dosed 103 weeks, study length 104 weeks); 323 mg/kg/day (rat, strain Fischer 344, females, in feed, site: pituitary gland + pancreatic islets, lesion: carcinoma, NOS + islet-cell carcinoma, dosed 103 weeks, study length 104 weeks); 1540 mg/kg/day (rat, strain Fischer 344, females, in feed, site: urinary bladder, lesion: leiomyoma, dosed 103 weeks, study length 104 weeks); 131 mg/kg/day (rat, strain Fischer 344, females, in feed, site: urinary bladder, lesion: leiomyosarcoma + leiomyoma + squamous-cell carcinoma + squamous-cell papilloma + transitional-cell carcinoma + transitional-cell p, dosed 103 weeks, study length 104 weeks). In addition, the TD50 (rat, strain Fischer 344, females, in feed, site: urinary bladder, lesion: leiomyosarcoma + leiomyoma, dosed 103 weeks, study length 104 weeks) is 250 mg/kg/day; the TD50 (rat, strain Fischer 344, females, in feed, site: urinary bladder, lesion: leiomyosarcoma, dosed 103 weeks, study length 104 weeks) is 294 mg/kg/day; the TD50 (rat, strain Fischer 344, females, in feed, site: urinary bladder, lesion: squamous-cell carcinoma + squamous-cell papilloma, dosed 103 weeks, study length 104 weeks) is 664 mg/kg/day; the TD50 (rat, strain Fischer 344, females, in feed, site: urinary bladder, lesion: squamous-cell carcinoma, dosed 103 weeks, study length 104 weeks) is 1580 mg/kg/day; the TD50 (rat, strain Fischer 344, females, in feed, site: urinary bladder, lesion: squamous-cell papilloma, dosed 103 weeks, study length 104 weeks) is 1020 mg/kg/day; the TD50 (rat, strain Fischer 344, females, in feed, site: urinary bladder, lesion: transitional-cell carcinoma + transitional-cell papilloma, dosed 103 weeks, study length 104 weeks) is 198 mg/kg/day. The TD50 was 307 mg/kg/day (rat, strain Fischer 344, females, in feed, site: urinary bladder, lesion: transitional-cell carcinoma, dosed 103 weeks, study length 104 weeks); 317 mg/kg/day (rat, strain Fischer 344, females, in feed, site: urinary bladder, lesion: transitional-cell papilloma, dosed 103 weeks, study length 104 weeks); 39.3 mg/kg/day (rat, strain Fischer 344, males, in feed, site: any site (literature study), lesion: several types, types named in the paper, dosed 103 weeks, study length 104 weeks); 414 mg/kg/day (rat, strain Fischer 344, males, in feed, site: pancreatic islets, lesion: islet-cell adenoma + islet-cell carcinoma, dosed 103 weeks, study length 104 weeks); 810 mg/kg/day (rat, strain Fischer 344, males, in feed, site: pancreatic islets, lesion: islet-cell adenoma, dosed 103 weeks, study length 104 weeks); 1830 mg/kg/day (rat, strain Fischer 344, males, in feed, site: subcutaneous tissue, lesion: sarcoma, NOS, dosed 103 weeks, study length 104 weeks). Besides, the TD50 by setting is: (rat, strain Fischer 344, males, in feed, site: testis, lesion: interstitial-cell tumor, dosed 103 weeks, study length 104 weeks) 100 mg/kg/day; (rat, strain Fischer 344, males, in feed, site: thyroid gland, lesion: c-cell adenoma + c-cell carcinoma, dosed 103 weeks, study length 104 weeks) 474 mg/kg/day; (rat, strain Fischer 344, males, in feed, site: thyroid gland, lesion: c-cell adenoma, dosed 103 weeks, study length 104 weeks) 529 mg/kg/day; (rat, strain Fischer 344, males, in feed, site: urinary bladder, lesion: leiomyosarcoma + leiomyoma + squamous-cell carcinoma + squamous-cell papilloma + transitional-cell carcinoma + transitional-cell p, dosed 103 weeks, study length 104 weeks) 89.3 mg/kg/day; (rat, strain Fischer 344, males, in feed, site: urinary bladder, lesion: leiomyosarcoma + leiomyoma, dosed 103 weeks, study length 104 weeks) 129 mg/kg/day; (rat, strain Fischer 344, males, in feed, site: urinary bladder, lesion: leiomyosarcoma, dosed 103 weeks, study length 104 weeks) 131 mg/kg/day. The TD50 is, setting by setting: (rat, strain Fischer 344, males, in feed, site: urinary bladder, lesion: squamous-cell carcinoma + squamous-cell papilloma, dosed 103 weeks, study length 104 weeks) 803 mg/kg/day; (rat, strain Fischer 344, males, in feed, site: urinary bladder, lesion: squamous-cell papilloma, dosed 103 weeks, study length 104 weeks) 1260 mg/kg/day; (rat, strain Fischer 344, males, in feed, site: urinary bladder, lesion: transitional-cell carcinoma + transitional-cell papilloma, dosed 103 weeks, study length 104 weeks) 245 mg/kg/day; (rat, strain Fischer 344, males, in feed, site: urinary bladder, lesion: transitional-cell carcinoma, dosed 103 weeks, study length 104 weeks) 506 mg/kg/day; (rat, strain Fischer 344, males, in feed, site: urinary bladder, lesion: transitional-cell papilloma, dosed 103 weeks, study length 104 weeks) 370 mg/kg/day.

For `C=C(F)F`, the TD50 runs as follows: (rat, strain Sprague-Dawley, females, by gavage, site: fat, lesion: lipoma, dosed 52 weeks, study length 141 weeks) 60.3 mg/kg/day; (rat, strain Sprague-Dawley, females, by gavage, site: fat, lesion: liposarcoma, dosed 52 weeks, study length 141 weeks) 122 mg/kg/day; (rat, strain Sprague-Dawley, males, by gavage, site: fat, lesion: liposarcoma, dosed 52 weeks, study length 141 weeks) 38.8 mg/kg/day.

Consider `CCN(CC)C(C)=O`, for which the TD50 was 11.8 mg/kg/day (rat, strain Wistar, males, by gavage, site: any site (literature study), lesion: several types, types named in the paper, dosed 73 weeks, study length 73 weeks) and 8.85 mg/kg/day (rat, strain Wistar, males, by gavage, site: kidney, lesion: papillary transitional-cell carcinoma, dosed 73 weeks, study length 73 weeks).

The values are drawn from PubChem BioAssay AID1745844 (Carcinogenic Potency Database (CPDB), 2022).
